Patent publication US11987579B2 (Duke University, priority 2018, dated 2024)

Key:
Fzd1-GFP = assay: Frizzled 1-GFP (Fzd1-GFP) internalization assay; format: cell-based; conditions: 12.5 μM, 6 h, 37° C., U20S cells stably expressing Fzd1-GFP, confocal microscopy, vs DMSO
Experimental: The Frizzled 1-GFP (Fzd1-GFP) assay was performed following a procedure similar to that previously reported (Chen et al., Biochemistry 2009, 48, 10267). Briefly, U20S cells stably expressing Fzd1-GFP were plated in con local dishes and incubated at 37° C. with 5% CO2. After 24 hours the cells were treated with 12.5 μM of test compound (dissolved in DMSO) or DMSO alone in media as a control for 6 hours at 37° C. and then fixed with 4% paraformaldehyde. The cells were then examined by microscopy using an LSM 510-Meta confocal microscope (Carl Zeiss, Thornwood, N.Y., USA) equipped with 40× and 100×apo chromat objectives. GFP was excited using a 488-nm argon laser line. Images were processed using the LSM software Image Browser.

Wnt/β-catenin signaling = assay: Wnt3A-stimulated TOPFlash reporter assay; format: cell-based; conditions: Homo sapiens; HEK293 stably expressing TOPFlash and Renilla luciferase, Wnt3A-conditioned medium, 0.04 to 10 μM, mean±SEM, n=3; read-out: IC50, inhibition of Wnt/β-catenin signaling in TOPFlash assay
Experimental: Wnt-3A conditioned medium was prepared using L WNT-3A cells (ATCC® CRL-2647™) purchased from ATCC, and was obtained using published protocols (http://www.atcc.org/Products/All/CRL-2647.aspx#culturemethod). HEK293 were stably transfected with p8×TOPFlash, Renilla luciferase plasmid pRL-TK, and pLKO.1. Briefly, stably transfected cells were seeded in 100 μL of cell growth medium (MEM, Sigma, catalog number M4655) supplemented with 10% FBS (Atlanta Biologieals, catalog number S11050), and 1 μg/mL puromycin (Sigma, catalog number P8833), 100 U/mL penicillin-streptomycin (Invitrogen, catalog number 15140122)/well in 96-well plates and incubated in 5% CO2 at 37° C. overnight to 100% confluency. Fifty microliters of Wnt-3A conditioned medium containing the chemical compounds to be tested or DMSO was added to each well. After 6 h treatment, the cell were washed once with PBS and lysed with 55 μL of Passive Lysis Buffer supplied in the Dual-Luciferase Reporter Assay kit (Promega, Catalog number E1960). Twenty-five microliters of cell lysate was used for measuring luciferase activity in a […] plate reader (FluoStar Optima, BMG Labtech, Chicago, Ill.).

[1] = test system: Wnt/β-catenin target gene protein levels; assay: Evaluation of Wnt signaling inhibition by Western blot; format: cell-based; conditions: 5 μM, 18 h; HCT116, SW-480 and CRC240 cells
Experimental: All cells were plated in 6 well-plates and allowed to attach overnight in a 5% CO2 incubator at 37° C. to reach 50-70 percent confluency. The cells were then treated with the indicated compound for 18 hours. Whole cell lysates were prepared by adding 200 μL 1.5× Laemmli sample buffer. Cytosolic lysates were prepared by treating cells with hypotonic buffer and dispersing cell aggregates by drawing the lysate buffer in and out a syringe equipped with 25G×1 needles. The cytosolic lysate was centrifuged at 15,000 rpm for 120 minutes, 200 μL of cytosol lysate was collected and 67 μL of 4× Laemmli sample buffer was added. Whole cell lysates were subjected to Western blot analysis using antibodies to c-Myc (Santa Cruz Biotechnology, catalog number SC-40), Cyclin D1 (Cell Signaling Technology, catalog number 2978), and Survivin (Cell Signaling Technology, catalog number 2808). Cytosol lysate were subjected to Western blot analysis using antibodies to β-catenin (Santa Cruz Biotechnology SC-7963) and Axin2 (Cell Signaling Technology, catalog number 2151). An antibody to β-actin (Santa Cruz Biotechnology, catalog number SC-47798) was used as a loading control.

CCD841Co colonic cells = assay: Assessment of oxygen consumption rate (OCR), Seahorse XFp; format: cell-based; conditions: 1 μM, CCD841Co cells, basal conditions, vs DMSO
Experimental: Colonic epithelial CCD841Co cells were plated in Seahorse XFp 8-well miniplates at 8000 cells/well and allowed to attach overnight at 37° C. in a 5% CO2 incubator. Polarographic analysis of OCR was performed using Seahorse XF Analyzer (Agilent Technologies, Santa Clara, Calif.) and a Seahorse XFp Cell Mito Stress Test Kit (Agilent Technologies, catalog number 103010-100). […] Data were analyzed by the software Wave (Version 2.3.0.20, Agilent Technologies, Santa Clara, Calif.).

HT-29 = assay: Inhibition of cell proliferation by MTS assay, HT-29; format: cell-based; conditions: Homo sapiens; HT-29, MTS assay at 72 hr
Experimental: (§1) Colon cancer cell lines SW948, HT-29, HCT116, CRC240, SW480, and DLD-1 were used in the cell proliferation assay. All cell lines, except CRC240, were from ATCC. CRC240, a colorectal cancer patient derived xenograft (PDX) cell line, was obtained from the Hsu lab (Duke University). Generation of CRC240 cell line was previously reported. SW948 cells were cultured in Leibovitz's medium (Gibco, catalog number 21083-027). HT-29 and HCT116 cells were cultured in McCoy's 5A medium (Gibco, catalog number 16600-082). SW480 cells were cultured in MEM medium. CRC240 and DLD-1 cells were cultured in RPMI medium (Gibco, catalog number 11875-093). All media were supplemented with 10% FBS and 100 U/ml penicillin-streptomycin. […] IC50 values calculated using Graphpad Prism.

DLD-1 = assay: Inhibition of cell proliferation by MTS assay, DLD-1; format: cell-based; conditions: Homo sapiens; DLD-1, MTS assay at 72 hr
Experimental: as §1

six CRC tumor cell lines = assay: MTS assay, summary over six CRC tumor cell lines; format: cell-based; conditions: read-out: IC50 values, range over the six CRC cell lines
Experimental: as §1

CRC240 PDX tumors = assay: CRC240 PDX xenograft tumor study; format: in vivo, NOD/SCID mice; conditions: 11 days
Experimental: The development of CRC240 PDX was previously reported (Lu et al. PLoS One 2017, 12, e0169439). Briefly, CRC240 PDX tissue were wash in PBS and then minced in PBS at 150 mg/mL. 200 μL of the PDX tissue suspension were implanted into the flanks of NOD/SCID mice. When PDX tumor volume reached about 100 mm^3, mice were randomized and were orally dosed for 11 days daily byniclosamide, DK419, or the vehicle control (10% 1-methyl-2-pyrrolidmone and 90% PEG300). […] DK419 was dissolved in the vehicle at 0.2 mg/ml and dosed at 1 mg/kg. Tumor size and body weight were measured at day 0, 4, 8, and 11. The day after the last dose, animals were euthanized and tumor samples were collected and processed for Western blot analysis. Briefly, tumor samples were lysed in RIPA Buffer (Thermofisher Scientific, catalog number 89900). Sample lysates were subjected to Western blot using antibodies to Survivin, c-Myc, and Axin2 as described above. β-actin was used as a loading control.

O=C(Nc1ccc(C(F)(F)F)cc1)c1cc(Cl)cc2nc(C(F)(F)F)[nH]c12 [DK419, 6-chloro-2-(trifluoromethyl)-N-(4-(trifluoromethyl)phenyl)-1H-benzo[d]imidazole-4-carboxamide]
Fzd1-GFP receptor internalization (green fluorescent internal puncta) (Fzd1-GFP): robust punctate pattern | IC50 (Wnt/β-catenin signaling): 190 ± 80 nM | levels of Axin2, β-catenin, c-Myc, Cyclin D1 and Survivin by Western blot [1]: reduced levels | oxygen consumption rate (CCD841Co colonic cells): increases the rate of oxygen consumption | IC50 (HT-29): 110 nM | IC50 (DLD-1): 350 nM | IC50 (six CRC tumor cell lines): 40 to 350 nM | growth of CRC240 PDX tumors (tumor volume) (CRC240 PDX tumors; 1 mg/kg (2.4 μmol/kg) oral once a day, vs vehicle): inhibited the growth of CRC240 PDX tumors compared to vehicle control | body weight (CRC240 PDX tumors; 1 mg/kg oral once a day): Neither DK419 nor niclosamide produced a change in body weight | levels of Wnt/β-catenin target genes (Axin2, Survivin, c-Myc) in tumors, Western blot (CRC240 PDX tumors; 1 mg/kg oral once a day, tumors collected day after last dose, vs vehicle): reduced significantly

O=C(Nc1ccc([N+](=O)[O-])cc1Cl)c1cc(Cl)ccc1O [Niclosamide, reference compound]
Fzd1-GFP receptor internalization (green fluorescent internal puncta) (Fzd1-GFP): robust punctate pattern | IC50 (Wnt/β-catenin signaling): 450 ± 140 nM | levels of Axin2, β-catenin, c-Myc, Cyclin D1 and Survivin by Western blot [1]: reduced levels | oxygen consumption rate (CCD841Co colonic cells): increases the oxygen consumption rate | IC50 (HT-29): 100 nM | IC50 (DLD-1): 1780 nM | IC50 (six CRC tumor cell lines): 100 to 1780 nM | growth of CRC240 PDX tumors (tumor volume) (CRC240 PDX tumors; 72 mg/kg (220 μmol/kg) oral once a day, vs vehicle): inhibited tumor growth | body weight (CRC240 PDX tumors; 72 mg/kg oral once a day): Neither DK419 nor niclosamide produced a change in body weight
